In patent US9096547B2, “Sodium salt of 6-fluoro-3-hydroxy-2-pyrazine carboxamide” (Toyama Chemical Co., Ltd., priority 2010, dated 2015) one finds appearance change data, which are given here for one molecule.

A short description of series [1]: Stability (1): appearance after standing at 60° C. for 1 month. In kind it is physicochemical. Particulars: stand still at 60° C. for 1 month. The protocol:
The preparations of Examples 1, 7, 9, 10, 11, 12, 25, 28 and 29 were allowed to stand still at 60° C. for 1 month and then their appearance was observed.

Series [2] is described as follows: Stability (2): appearance after irradiation by a D65 lamp. Particulars: irradiated (1,200,000 lx·hr) by a D65 lamp. In kind it is physicochemical. The source says: The preparations of Examples 1, 10, 15, 16, 22 and Comparative Example 1 were irradiated (1,200,000 lx·hr) by a D65 lamp (FLR20S-D-EDL-D65/M) and then their appearance was observed.

Each structure is given as a SMILES string.

Turning to `NC(=O)c1nc(F)cnc1O.[Na]` [Example 1, sodium salt of 6-fluoro-3-hydroxy-2-pyrazinecarboxamide], the appearance change entry in series [1] and in series [2] was “appearance change was not observed” in each case.
